In patent publication US12077503B2, “Substituted cyclic amides and their use as herbicides” (FMC CORPORATION, priority 2015, dated 2024):

Experiments:
Assay type in all cases: in vivo
[1] = tested on: ryegrass, Italian (Italian ryegrass, Lolium multiflorum); experiment: Test A preemergence; conditions: Lolium multiflorum, pre-emergence, 240 h, 0 to 100 scale where 0 is no effect and 100 is complete control, read-out: Ryegrass, Italian plant response rating
Outline: (§1)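 Greenhouse, ~10 d after spray; visual injury vs untreated controls, 0 = no effect, 100 = complete control. Preemergence: directed soil spray over planted seeds. Postemergence: plants 2–10 cm, 1–2 leaf stage. Loam/sand blend. Compound in non-phytotoxic solvent with surfactant.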

[2] = tested on: pigweed (Amaranthus retroflexus); experiment: Test A preemergence; conditions: Amaranthus retroflexus, pre-emergence, 240 h, 0 to 100 scale where 0 is no effect and 100 is complete control, read-out: Pigweed plant response rating
[3] = tested on: giant foxtail (Setaria faberii); experiment: Test A preemergence; conditions: Setaria faberi, pre-emergence, 240 h, 0 to 100 scale where 0 is no effect and 100 is complete control, read-out: Foxtail, Giant plant response rating
Outline: as §1

[4] = tested on: Kochia (Kochia scoparia); experiment: Test A preemergence; conditions: Bassia scoparia, pre-emergence, 240 h, 0 to 100 scale where 0 is no effect and 100 is complete control, read-out: Kochia plant response rating
Outline: as §1

[5] = tested on: barnyardgrass (Echinochloa crus-galli); experiment: Test A preemergence; conditions: Echinochloa crus-galli, pre-emergence, 240 h, 0 to 100 scale where 0 is no effect and 100 is complete control, read-out: Barnyardgrass plant response rating
Outline: as §1

[6] = tested on: ragweed (common ragweed, Ambrosia elatior); experiment: Test A preemergence; conditions: Ambrosia artemisiifolia, pre-emergence, 240 h, 0 to 100 scale where 0 is no effect and 100 is complete control, read-out: Ragweed plant response rating
Outline: as §1

[7] = tested on: sedge, umbrella (small-flower umbrella sedge, Cyperus difformis); experiment: Test B flooded paddy test; conditions: Cyperus difformis, 250 g ai/ha, Flood; 0 to 100 scale where 0 is no effect and 100 is complete control; read-out: Sedge, Umbrella plant response rating
Outline: (§2)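 2-leaf plants; pots flooded 3 cm over soil; cpd added to paddy water; depth held; greenhouse 13–15 d; visual rating vs controls, 0 = no effect, 100 = complete control.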

[8] = tested on: ducksalad (Heteranthera limosa); experiment: Test B flooded paddy test; conditions: Heteranthera limosa, 250 g ai/ha, Flood; 0 to 100 scale where 0 is no effect and 100 is complete control; read-out: Ducksalad plant response rating
Outline: as §2

[9] = tested on: barnyardgrass (Echinochloa crus-galli); experiment: Test B flooded paddy test; conditions: Echinochloa crus-galli, 250 g ai/ha, Flood; 0 to 100 scale where 0 is no effect and 100 is complete control; read-out: Barnyardgrass plant response rating
Outline: as §2

[10] = tested on: rice (Oryra sativa); experiment: Test B flooded paddy test; conditions: Oryza sativa, 250 g ai/ha, Flood; 0 to 100 scale where 0 is no effect and 100 is complete control; read-out: Rice plant response rating
Outline: as §2

[11] = tested on: Galium (catchweed bedstraw, Galium aparine); experiment: Test A postemergence; conditions: Galium, post-emergence, 240 h
Outline: as §1

[12] = tested on: ryegrass, Italian (Italian ryegrass, Lolium multiflorum); experiment: Test A postemergence; conditions: Lolium multiflorum, post-emergence, 240 h, 125 g ai/ha, postemergence, visual injury vs untreated controls after approx. 10 d; 0 = no effect, 100 = complete control; read-out: Ryegrass, Italian plant response rating (0 to 100 scale)
Outline: as §1

[13] = tested on: corn (Zea mays); experiment: Test A postemergence; conditions: Zea mays, post-emergence, 240 h
Outline: as §1

[14] = tested on: pigweed (Amaranthus retroflexus); experiment: Test A postemergence; conditions: Amaranthus retroflexus, post-emergence, 240 h, 125 g ai/ha, postemergence, visual injury vs untreated controls after approx. 10 d; 0 = no effect, 100 = complete control; read-out: Pigweed plant response rating (0 to 100 scale)
Outline: as §1

[15] = tested on: giant foxtail (Setaria faberii); experiment: Test A postemergence; conditions: Setaria faberi, post-emergence, 240 h
Outline: as §1

[16] = tested on: wheat (Triticum aestivum); experiment: Test A postemergence; conditions: Triticum aestivum, post-emergence, 240 h, 125 g ai/ha, postemergence, visual injury vs untreated controls after approx. 10 d; 0 = no effect, 100 = complete control; read-out: Wheat plant response rating (0 to 100 scale)
Outline: as §1

[17] = tested on: Kochia (Kochia scoparia); experiment: Test A postemergence; conditions: Bassia scoparia, post-emergence, 240 h
Outline: as §1

[18] = tested on: barnyardgrass (Echinochloa crus-galli); experiment: Test A postemergence; conditions: Echinochloa crus-galli, post-emergence, 240 h
Outline: as §1

[19] = tested on: ragweed (common ragweed, Ambrosia elatior); experiment: Test A postemergence; conditions: Ambrosia artemisiifolia, post-emergence, 240 h, 125 g ai/ha, postemergence, visual injury vs untreated controls after approx. 10 d; 0 = no effect, 100 = complete control; read-out: Ragweed plant response rating (0 to 100 scale)
Outline: as §1

[20] = tested on: blackgrass (Alopecurus myosuroides); experiment: Test A postemergence; conditions: Alopecurus myosuroides, post-emergence, 240 h
Outline: as §1

[21] = 125 g ai/ha, preemergence, visual injury rating, approximately 10 d

Structure (SMILES): COc1ccc(C(F)(F)F)cc1[C@H]1CN(C)C(=O)[C@@H]1C(=O)Nc1ccccc1SC [Compound 1185]
- pest or weed control at 31 g/ha ([1]; 31 g ai/ha, Preemergence): 0%
- pest or weed control at 125 g/ha [1, 21]: 60%
- pest or weed control at 31 g/ha ([2]; 31 g ai/ha, Preemergence): 0%
- pest or weed control at 125 g/ha [2, 21]: 0%
- pest or weed control at 31 g/ha ([3]; 31 g ai/ha, Preemergence): 50%
- pest or weed control at 125 g/ha [3, 21]: 90%
- pest or weed control at 31 g/ha ([4]; 31 g ai/ha, Preemergence): 0%
- pest or weed control at 125 g/ha [4, 21]: 0%
- pest or weed control at 31 g/ha ([5]; 31 g ai/ha, Preemergence): 70%
- pest or weed control at 125 g/ha [5, 21]: 100%
- pest or weed control at 31 g/ha ([6]; 31 g ai/ha, Preemergence): 0%
- pest or weed control at 125 g/ha [6, 21]: 0%
- pest or weed control at 250 g/ha [7]: 0%
- pest or weed control at 250 g/ha [8]: 50%
- pest or weed control at 250 g/ha [9]: 60%
- pest or weed control at 250 g/ha [10]: 0%
- pest or weed control at 125 g/ha ([11]; 125 g ai/ha, postemergence, visual injury vs untreated controls after approx. 10 d, 0 = no effect, 100 = complete control, read-out: Galium plant response rating (0 to 100 scale)): 0%
- pest or weed control at 31 g/ha ([11]; Postemergence, 31 g ai/ha, visual injury after approx. 10 d, 0 to 100 scale, 0 no effect, 100 complete control, read-out: Plant response rating, Galium): 0%
- pest or weed control at 125 g/ha [12]: 20%
- plant injury at 125 g/ha ([13]; 125 g ai/ha, postemergence, visual injury vs untreated controls after approx. 10 d, 0 = no effect, 100 = complete control, read-out: Corn plant response rating (0 to 100 scale)): 20%
- Corn plant response rating (crop injury, 0 = no effect, 100 = complete kill) at 31 g/ha ([13]; Postemergence, 31 g ai/ha, visual injury after approx. 10 d, 0 to 100 scale, 0 no effect, 100 complete control): 0%
- pest or weed control at 125 g/ha [14]: 0%
- pest or weed control at 125 g/ha ([15]; 125 g ai/ha, postemergence, visual injury vs untreated controls after approx. 10 d, 0 = no effect, 100 = complete control, read-out: Foxtail, Giant plant response rating (0 to 100 scale)): 60%
- pest or weed control at 31 g/ha ([15]; Postemergence, 31 g ai/ha, visual injury after approx. 10 d, 0 to 100 scale, 0 no effect, 100 complete control, read-out: Plant response rating, Foxtail, Giant): 30%
- plant injury at 125 g/ha [16]: 40%
- pest or weed control at 125 g/ha ([17]; 125 g ai/ha, postemergence, visual injury vs untreated controls after approx. 10 d, 0 = no effect, 100 = complete control, read-out: Kochia plant response rating (0 to 100 scale)): 0%
- pest or weed control at 31 g/ha ([17]; Postemergence, 31 g ai/ha, visual injury after approx. 10 d, 0 to 100 scale, 0 no effect, 100 complete control, read-out: Plant response rating, Kochia): 0%
- pest or weed control at 125 g/ha ([18]; 125 g ai/ha, postemergence, visual injury vs untreated controls after approx. 10 d, 0 = no effect, 100 = complete control, read-out: Barnyardgrass plant response rating (0 to 100 scale)): 50%
- pest or weed control at 31 g/ha ([18]; Postemergence, 31 g ai/ha, visual injury after approx. 10 d, 0 to 100 scale, 0 no effect, 100 complete control, read-out: Plant response rating, Barnyardgrass): 20%
- pest or weed control at 125 g/ha [19]: 0%
- pest or weed control at 125 g/ha ([20]; 125 g ai/ha, postemergence, visual injury vs untreated controls after approx. 10 d, 0 = no effect, 100 = complete control, read-out: Blackgrass plant response rating (0 to 100 scale)): 50%
- pest or weed control at 31 g/ha ([20]; Postemergence, 31 g ai/ha, visual injury after approx. 10 d, 0 to 100 scale, 0 no effect, 100 complete control, read-out: Plant response rating, Blackgrass): 0%
